# Reference: ChEMBL document CHEMBL1135059, “Structure-activity relationships of novel anti-malarial agents. Part 3: N-(4-acylamino-3-benzoylphenyl)-4-propoxycinnamic acid amides” (Bioorg Med Chem Lett, 2002)
# Assays:
# [1] = test system: Plasmodium falciparum; assay: microbe, parasite or virus in culture
# Description: Antimalarial activity against Plasmodium falciparum 3D7 in erythrocytes
# [2] = test system: Plasmodium falciparum; assay: microbe, parasite or virus in culture; remark: listed apart in the source
# Description: Antimalarial activity against Plasmodium falciparum Dd2 in erythrocytes
Structure (SMILES),IC50 [1],IC50 [2]
CCCOc1ccc(/C=C/C(=O)Nc2ccc(NC(=O)Cc3ccc(-c4ccccc4)cc3)c(C(=O)c3ccccc3)c2)cc1,19000 nM,24000 nM
CCCOc1ccc(/C=C/C(=O)Nc2ccc(NC(=O)Cc3ccccc3)c(C(=O)c3ccccc3)c2)cc1,1900 nM,2500 nM
CCCOc1ccc(/C=C/C(=O)Nc2ccc(NC(=O)Cc3ccccc3C)c(C(=O)c3ccccc3)c2)cc1,1400 nM,2400 nM
CCCOc1ccc(/C=C/C(=O)Nc2ccc(NC(=O)Cc3ccc(Cl)cc3)c(C(=O)c3ccccc3)c2)cc1,270 nM,350 nM
CCCOc1ccc(/C=C/C(=O)Nc2ccc(NC(=O)Cc3ccc(C)cc3)c(C(=O)c3ccccc3)c2)cc1,250 nM,340 nM
CCCOc1ccc(/C=C/C(=O)Nc2ccc(NC(=O)Cc3ccccc3Br)c(C(=O)c3ccccc3)c2)cc1,2000 nM,2800 nM
CCCOc1ccc(/C=C/C(=O)Nc2ccc(NC(=O)/C=C/c3ccc(OCCC)cc3)c(C(=O)c3ccccc3)c2)cc1,20000 nM,23000 nM
CCCOc1ccc(/C=C/C(=O)Nc2ccc(NC(=O)Cc3ccc(OC)cc3)c(C(=O)c3ccccc3)c2)cc1,1200 nM,1300 nM
CCCOc1ccc(/C=C/C(=O)Nc2ccc(NC(=O)c3ccccc3)c(C(=O)c3ccccc3)c2)cc1,6500 nM,9000 nM
CCc1nc(N)nc(N)c1-c1ccc(Cl)cc1 [PYRIMETHAMINE],3 nM,–
CCCOc1ccc(/C=C/C(=O)Nc2ccc(NC(=O)c3cccc4ccccc34)c(C(=O)c3ccccc3)c2)cc1,2700 nM,3400 nM
CCCOc1ccc(/C=C/C(=O)Nc2ccc(NC(=O)Cc3ccc(C(F)(F)F)cc3)c(C(=O)c3ccccc3)c2)cc1,100 nM,120 nM
CCCCN(CCCC)CC(O)c1cc(Cl)cc2c1-c1ccc(Cl)cc1C2=Cc1ccc(Cl)cc1 (centres undefined) [LUMEFANTRINE],29 nM,30 nM
C=C[C@H]1CN2CC[C@H]1C[C@H]2[C@H](O)c1ccnc2ccc(OC)cc12 [QUININE],96 nM,–
CC1(C)N=C(N)N=C(N)N1c1ccc(Cl)cc1 [CYCLOGUANIL],7.5 nM,–
CCCOc1ccc(/C=C/C(=O)Nc2ccc(NC(=O)Cc3ccc(Br)cc3)c(C(=O)c3ccccc3)c2)cc1,140 nM,310 nM
